Assay results: ChEMBL document CHEMBL1123868, “Synthesis of a series of compounds related to betaxolol, a new beta 1-adrenoceptor antagonist with a pharmacological and pharmacokinetic profile optimized for the treatment of chronic cardiovascular diseases” (J Med Chem, 1987)
Calls of active or inactive are those of the source. The calls are words filed in the database; no cut-off is given here.

Legend:
Rattus norvegicus [1] = organism: Rattus norvegicus; test: Antihypertensive activity expressed as percentage of base-line systolic blood pressure of base-line values in spontaneously hypertensive rats (SHR) was reported after 4 hr; format: functional, Artery; further: test concentration or dose not given here
Rattus norvegicus [2] = organism: Rattus norvegicus; test: Antihypertensive activity expressed as percentage of base-line systolic blood pressure of base-line values in spontaneously hypertensive rats (SHR) was reported after 2 hr; format: functional, Artery; further: test concentration or dose not given here
Rattus norvegicus [3] = organism: Rattus norvegicus; test: Antihypertensive activity expressed as percentage of base-line systolic blood pressure of base-line values in spontaneously hypertensive rats (SHR) was reported after 24 hr; format: functional, Artery; further: test concentration or dose not given here
[4] = target: Beta-1 adrenergic receptor (Rattus norvegicus) (UniProt P18090); conditions: read-out: pA2 (converted)
Sequence of Beta-1 adrenergic receptor (Rattus norvegicus) (P18090 whole entry, looked up): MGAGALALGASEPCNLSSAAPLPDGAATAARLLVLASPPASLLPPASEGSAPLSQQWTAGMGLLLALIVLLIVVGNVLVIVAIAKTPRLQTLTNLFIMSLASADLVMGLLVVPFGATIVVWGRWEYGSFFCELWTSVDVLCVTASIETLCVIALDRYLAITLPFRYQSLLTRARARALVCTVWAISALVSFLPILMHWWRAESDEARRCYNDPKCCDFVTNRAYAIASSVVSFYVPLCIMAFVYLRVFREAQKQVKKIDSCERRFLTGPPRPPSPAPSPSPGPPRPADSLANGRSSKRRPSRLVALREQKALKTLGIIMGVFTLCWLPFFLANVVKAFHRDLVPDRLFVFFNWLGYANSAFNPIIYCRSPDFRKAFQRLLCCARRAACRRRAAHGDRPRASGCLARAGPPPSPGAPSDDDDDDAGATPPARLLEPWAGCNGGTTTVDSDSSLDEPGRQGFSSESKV

[5] = target: Beta-1 adrenergic receptor (Rattus norvegicus) (UniProt P18090); test: Antagonist activity was determined against beta-1 adrenergic receptor in spontaneously beating rat atria; format: functional

Row | SMILES | Baseline systolic BP (Rattus norvegicus [1]) | Baseline systolic BP (Rattus norvegicus [2]) | Baseline systolic BP (Rattus norvegicus [3]) | Kb [4] | NA [5]
1 | CC(C)NCC(O)COc1ccc(COCC2CCC2)cc1.Cl (stereo not given) | -6% | -9% | -1% | – | –
2 | CC(=O)Nc1ccc(OCC(O)CNC(C)C)cc1 (stereo not given) [PRACTOLOL] | – | – | – | 0.186 µM | –
3 | COc1ccc(CCNCC(O)COc2ccc(CCOCC3CCC3)cc2)cc1OC.Cl (stereo not given) | -5% | -7% | -6% | – | –
4 | CC(C)NCC(O)COc1ccc(CCOC2CCCCC2)cc1 (stereo not given) | -2% | 4% | -12% | – | –
5 | CC(C)NCC(O)COc1ccc(C[S+]([O-])CC2CCCC2)cc1 (stereo not given) | -7% | -5% | -1% | – | inactive
6 | CC(C)NCC(O)COc1ccc(CCSCC2CCC2)cc1 (stereo not given) | -6% | -2% | -3% | – | –
7 | Cl.OC(CNC1CC1)COc1ccc(CCOCC2CCC2)cc1 (stereo not given) | -5% | 0% | 0% | – | –
8 | CC(C)NCC(O)COc1ccc(CCS(=O)(=O)CC2CCCCC2)cc1.Cl (stereo not given) | -2% | -6% | -2% | – | –
9 | CC(C)NCC(O)COc1cccc2ccccc12 (stereo not given) [PROPRANOLOL] | 0% | 0% | -9% | – | –
10 | CC(CC#N)NCC(O)COc1ccc(CCOCC2CCC2)cc1.Cl (stereo not given) | -4% | -2% | -2% | – | –
11 | CC(C)NC[C@H](O)COc1ccc(CCOCC2CC2)cc1 [LEVOBETAXOLOL] | -12% | -10% | -13% | – | –
12 | CC(C)NCC(O)COc1ccc(CCCOCC2CCC2)cc1.O=C(O)C(=O)O (stereo not given) | -11% | -11% | -1% | – | –
13 | CC(CCc1ccccc1)NCC(O)COc1ccc(CCOCC2CCC2)cc1 (stereo not given) | 1% | -1% | 2% | – | –
14 | CC(C)NCC(O)COc1ccc(CCOCC2CC2)cc1.Cl (stereo not given) [BETAXOLOL HYDROCHLORIDE] | -19% | -22% | -6% | – | –
15 | COCCc1ccc(OCC(O)CNC(C)C)cc1 (stereo not given) [METOPROLOL] | -2% | 4% | -12% | – | –
16 | CC(C)NCC(O)COc1ccc(CCOCC2CCCC2)cc1 (stereo not given) | -16% | -21% | -8% | – | –
17 | CC(C)NCC(O)COc1ccc(CCOC2CCCC2)cc1 (stereo not given) | -11% | -17% | -4% | – | –
18 | CC(C)NCC(O)COc1ccc(CCOCC2CC2)cc1 (stereo not given) [BETAXOLOL] | 5% | 3% | 3% | – | –
19 | CC(C)NCC(O)COc1ccc(CCOC2CCCC2)cc1.Cl (stereo not given) | -16% | -8% | -7% | – | –
20 | CC(C)NCC(O)COc1ccc(CCOCC2CCCCC2)cc1.Cl (stereo not given) | -18% | -14% | -7% | – | –
21 | CC(C)NCC(O)COc1ccc(C[S+]([O-])CC2CC2)cc1 (stereo not given) | -8% | -4% | -2% | – | –
22 | CC(CCc1ccc(F)cc1)NCC(O)COc1ccc(CCOCC2CCC2)cc1 (stereo not given) | -10% | -4% | -2% | – | –
23 | CC(C)NCC(O)COc1ccc(COCC2CC2)cc1 (stereo not given) | -3% | -4% | -6% | – | –
24 | CC(=O)NCCNCC(O)COc1ccc(CCOCC2CCC2)cc1.Cl (stereo not given) | -8% | -6% | -7% | – | –
25 | CC(C)NCC(O)COc1ccc(CCOCC2CCC2)cc1.Cl (stereo not given) | -16% | -16% | -4% | – | –
26 | CC(C)NCC(O)COc1ccc(CCS(=O)(=O)CC2CCCO2)cc1.Cl (stereo not given) | -16% | -22% | -3% | – | –
27 | CC(C)NCC(O)COc1ccc(CCS(=O)(=O)CC2CCC2)cc1.Cl (stereo not given) | -13% | -4% | 1% | – | –
